In patent US20130158127A1, “TEA TREE OIL DERIVATIVES” (priority 2011, published 2013):

Test system: Vero cells
Assay: Vero cell cytotoxicy assays (light microscopy of monolayers)

polysorbate 60 [PS-60]
sub-toxic dose (a small proportion of cells appeared to remain healthy): 0.125%
non-toxic dose (no changes compared to the untreated control): 0.06%
